From US20240358693A1, “METHODS OF TREATING PAIN” (Aisa Pharma, Inc., priority 2023, published 2024)

Tested on: participants with SSc-RP
Assay: Average daily Raynaud's Condition Score (RCS)
Format: in vivo, human
Parameters: key to Average Daily RCS, Mean / Average Daily RCS, Median / Average Daily RCS, Change from Baseline, Mean / Average Daily RCS, Change from Baseline, Median / Average daily RCS, Baseline, Mean / Average daily RCS, Baseline, Median / Mean RCS at baseline: RCS rated on a 0-10 cm VAS scale
Details: for Average Daily RCS, Change from Baseline, Mean / Average Daily RCS, Change from Baseline, Median / Average Daily RCS, Percent Change from Baseline, Mean / Average Daily RCS, Percent Change from Baseline, Median / Average Daily RCS, Mean / Average Daily RCS, Median / Average Daily RCS (dosing period), Mean / Average Daily RCS (dosing period), Median / Average daily RCS, Baseline, Mean / Average daily RCS, Baseline, Median: ITT Part A; for Average Daily RCS, Mean / Average Daily RCS, Median: dosing period
Excerpt: The RCS is based on how much difficulty participants had with Raynaud's today, how many attacks the participant had, and how long they lasted. In addition participants were and will be asked to consider how much pain, numbness, or other symptoms the Raynaud's caused in fingers (including painful sores), and how much the Raynaud's along affected the use of hand today (VAS 0-10 cm scale).
The absolute change in average daily RCS from baseline to the end of each dosing period was and will be a secondary outcome variable. The sponsor-developed participant-informed diary has been and will be used to record data. The average daily RCS is defined as the total RCS divided by the number of days with available diary data of each dosing period. Total RCS during screening period divided by the number of days with available data will be used as baseline for the analysis of all periods. If there are multiple daily RCS scores, the latest daily RCS will be used. The variable will be calculated similar to frequency data as before.

[1] = excluding outliers, dose Cilnidipine 10 mg, Tadalafil 5 mg, or 10 mg + 5 mg
[2] = excluding outliers, dose Cilnidipine 20 mg, or 20 mg + Tadalafil 5 mg
[3] = excluding outliers, pooled 10 mg and 20 mg Cilnidipine arms (combination: + Tadalafil 5 mg)
[4] = excluding outliers, pooled Cilnidipine 10 mg and Cilnidipine 10 mg + Tadalafil 5 mg
[5] = excluding outliers, pooled Cilnidipine 20 mg and Cilnidipine 20 mg + Tadalafil 5 mg
[6] = Pooled Cilnidipine 10 mg and Cilnidipine 10 mg + Tadalafil 5 mg
[7] = Pooled Cilnidipine 20 mg and Cilnidipine 20 mg + Tadalafil 5 mg

Q: How did the “Average Daily RCS, Change from Baseline, Mean” value (Cilnidipine 10 mg) turn out when COCCOC(=O)C1=C(C)NC(C)=C(C(=O)OC/C=C/c2ccccc2)C1c1cccc([N+](=O)[O-])c1 (stereo not shown) [Cilnidipine, cilnidipine] was run?
A: −0.98

Q: And the “Average Daily RCS, Change from Baseline, Median” value (Cilnidipine 10 mg)?
A: −0.98

Q: What about the “Average Daily RCS, Percent Change from Baseline, Mean” value (Cilnidipine 10 mg) of the same compound?
A: −35.74%

Q: What about the “Average Daily RCS, Percent Change from Baseline, Median” value (Cilnidipine 10 mg) of the same compound?
A: −35.74%

Q: What about the “Average Daily RCS, Mean” value (Cilnidipine 10 mg) of the same compound?
A: 1.76

Q: And the “Average Daily RCS, Median” value (Cilnidipine 10 mg)?
A: 1.76

Q: And the “Average Daily RCS, Change from Baseline, Mean” value (Cilnidipine 20 mg)?
A: −0.45

Q: And the “Average Daily RCS, Change from Baseline, Median” value (Cilnidipine 20 mg)?
A: −0.45

Q: What about the “Average Daily RCS, Percent Change from Baseline, Mean” value (Cilnidipine 20 mg) of the same compound?
A: −17.16%

Q: What about the “Average Daily RCS, Percent Change from Baseline, Median” value (Cilnidipine 20 mg) of the same compound?
A: −17.16%

Q: And the “Average Daily RCS, Mean” value (Cilnidipine 20 mg)?
A: 2.90

Q: And the “Average Daily RCS, Median” value (Cilnidipine 20 mg)?
A: 2.90

Q: What about the “Daily RCS Change” value (Cilnidipine (20 mg) (n = 3)) of the same compound?
A: −28%

Q: What about the “Mean % reduction in RCS” value (Cilnidipine (20 mg) (n = 3)) of the same compound?
A: 27.9%

Q: And the “Mean RCS at baseline” value (Cilnidipine (20 mg) (n = 3))?
A: 3.5

Q: And the “Average Daily RCS (dosing period), Mean” value [1]?
A: 1.76

Q: What about the “Average Daily RCS (dosing period), Median” value [1] of the same compound?
A: 1.76

Q: And the “Average Daily RCS, Change from Baseline, Mean” value [1]?
A: −0.98

Q: What about the “Average Daily RCS, Change from Baseline, Median” value [1] of the same compound?
A: −0.98

Q: And the “Average Daily RCS, Percent Change from Baseline, Mean” value [1]?
A: −35.74%

Q: And the “Average Daily RCS, Percent Change from Baseline, Median” value [1]?
A: −35.74%

Q: What about the “Average daily RCS, Baseline, Mean” value [1] of the same compound?
A: 2.74

Q: What about the “Average daily RCS, Baseline, Median” value [1] of the same compound?
A: 2.74

Q: What about the “Average Daily RCS (dosing period), Mean” value [2] of the same compound?
A: 2.90

Q: And the “Average Daily RCS (dosing period), Median” value [2]?
A: 2.90

Q: What about the “Average Daily RCS, Change from Baseline, Mean” value [2] of the same compound?
A: −0.45

Q: What about the “Average Daily RCS, Change from Baseline, Median” value [2] of the same compound?
A: −0.45

Q: What about the “Average Daily RCS, Percent Change from Baseline, Mean” value [2] of the same compound?
A: −17.16%

Q: And the “Average Daily RCS, Percent Change from Baseline, Median” value [2]?
A: −17.16%

Q: And the “Average daily RCS, Baseline, Mean” value [2]?
A: 3.35

Q: And the “Average daily RCS, Baseline, Median” value [2]?
A: 3.35

Q: And the “Average Daily RCS (dosing period), Mean” value [3]?
A: 2.52

Q: What about the “Average Daily RCS (dosing period), Median” value [3] of the same compound?
A: 1.76

Q: And the “Average Daily RCS, Change from Baseline, Mean” value [3]?
A: −0.63

Q: And the “Average Daily RCS, Change from Baseline, Median” value [3]?
A: −0.98

Q: And the “Average Daily RCS, Percent Change from Baseline, Mean” value [3]?
A: −23.35%

Q: And the “Average Daily RCS, Percent Change from Baseline, Median” value [3]?
A: −35.74%

Q: And the “Average daily RCS, Baseline, Mean” value [3]?
A: 3.15

Q: And the “Average daily RCS, Baseline, Median” value [3]?
A: 2.80

Q: What about the “Average Daily RCS (dosing period), Mean” value [4] of the same compound?
A: 2.43

Q: And the “Average Daily RCS (dosing period), Median” value [4]?
A: 1.76

Q: And the “Average Daily RCS, Change from Baseline, Mean” value [4]?
A: −1.64

Q: And the “Average Daily RCS, Change from Baseline, Median” value [4]?
A: −1.51

Q: And the “Average Daily RCS, Percent Change from Baseline, Mean” value [4]?
A: −41.77%

Q: And the “Average Daily RCS, Percent Change from Baseline, Median” value [4]?
A: −36.47%

Q: And the “Average daily RCS, Baseline, Mean” value [4]?
A: 4.07

Q: What about the “Average daily RCS, Baseline, Median” value [4] of the same compound?
A: 2.85

Q: And the “Average Daily RCS (dosing period), Mean” value [5]?
A: 3.60

Q: And the “Average Daily RCS (dosing period), Median” value [5]?
A: 3.82

Q: And the “Average Daily RCS, Change from Baseline, Mean” value [5]?
A: −1.08

Q: And the “Average Daily RCS, Change from Baseline, Median” value [5]?
A: −0.59

Q: And the “Average Daily RCS, Percent Change from Baseline, Mean” value [5]?
A: −18.93%

Q: And the “Average Daily RCS, Percent Change from Baseline, Median” value [5]?
A: −20.71%

Q: What about the “Average daily RCS, Baseline, Mean” value [5] of the same compound?
A: 4.68

Q: And the “Average daily RCS, Baseline, Median” value [5]?
A: 3.74

Q: What about the “Average Daily RCS, Change from Baseline, Mean” value [6] of the same compound?
A: −1.64

Q: And the “Average Daily RCS, Change from Baseline, Median” value [6]?
A: −1.51

Q: What about the “Average Daily RCS, Percent Change from Baseline, Mean” value [6] of the same compound?
A: −41.77%

Q: What about the “Average Daily RCS, Percent Change from Baseline, Median” value [6] of the same compound?
A: −36.47%

Q: And the “Average Daily RCS, Mean” value [6]?
A: 2.43

Q: What about the “Average Daily RCS, Median” value [6] of the same compound?
A: 1.76

Q: And the “Average Daily RCS, Change from Baseline, Mean” value [7]?
A: −1.08

Q: What about the “Average Daily RCS, Change from Baseline, Median” value [7] of the same compound?
A: −0.59

Q: And the “Average Daily RCS, Percent Change from Baseline, Mean” value [7]?
A: −18.93%

Q: And the “Average Daily RCS, Percent Change from Baseline, Median” value [7]?
A: −20.71%

Q: And the “Average Daily RCS, Mean” value [7]?
A: 3.60

Q: What about the “Average Daily RCS, Median” value [7] of the same compound?
A: 3.82

Q: And the “Daily RCS Change” value (Pooled Cilnidipine (n = 7), this value n = 3)?
A: 12% (n = 3)

Q: What about the “Average Daily RCS, Change from Baseline, Mean” value (Pooled Cilnidipine) of the same compound?
A: −0.63

Q: And the “Average Daily RCS, Change from Baseline, Median” value (Pooled Cilnidipine)?
A: −0.98

Q: What about the “Average Daily RCS, Percent Change from Baseline, Mean” value (Pooled Cilnidipine) of the same compound?
A: −23.35%

Q: And the “Average Daily RCS, Percent Change from Baseline, Median” value (Pooled Cilnidipine)?
A: −35.74%

Q: And the “Average Daily RCS, Mean” value (Pooled Cilnidipine)?
A: 2.52

Q: And the “Average Daily RCS, Median” value (Pooled Cilnidipine)?
A: 1.76

Q: For CN1CC(=O)N2[C@H](c3ccc4c(c3)OCO4)c3[nH]c4ccccc4c3C[C@@H]2C1=O [Tadalafil, tadalafil], which “Average Daily RCS (dosing period), Mean” value [1] is on record?
A: 4.46

Q: What about the “Average Daily RCS (dosing period), Median” value [1] of the same compound?
A: 4.46

Q: What about the “Average Daily RCS, Change from Baseline, Mean” value [1] of the same compound?
A: −1.58

Q: What about the “Average Daily RCS, Change from Baseline, Median” value [1] of the same compound?
A: −1.58

Q: What about the “Average Daily RCS, Percent Change from Baseline, Mean” value [1] of the same compound?
A: −26.18%

Q: What about the “Average Daily RCS, Percent Change from Baseline, Median” value [1] of the same compound?
A: −26.18%

Q: What about the “Average daily RCS, Baseline, Mean” value [1] of the same compound?
A: 6.04

Q: And the “Average daily RCS, Baseline, Median” value [1]?
A: 6.04

Q: What about the “Average Daily RCS, Change from Baseline, Mean” value (Tadalafil 5 mg) of the same compound?
A: −0.67

Q: And the “Average Daily RCS, Change from Baseline, Median” value (Tadalafil 5 mg)?
A: −0.67

Q: And the “Average Daily RCS, Percent Change from Baseline, Mean” value (Tadalafil 5 mg)?
A: −11.76%

Q: And the “Average Daily RCS, Percent Change from Baseline, Median” value (Tadalafil 5 mg)?
A: −11.76%

Q: And the “Average Daily RCS, Mean” value (Tadalafil 5 mg)?
A: 7.05

Q: And the “Average Daily RCS, Median” value (Tadalafil 5 mg)?
A: 7.05
